{
  "source": "patent US6710090B2",
  "about": "“Inhibitory or blocking agents of molecular generating and/or inducing functions” (priority 1994, dated 2004)",
  "assay": "Comparison of 4,4-dimethyl-2-cyclohexen-1-one with Yoshixol on all parameters",
  "excerpt": "In addition, higher dosage was needed to be obtained qualitatively an identical effect to the above-mentioned effect of Yoshixol. Then, the concentration of 4,4-dimethyl-2-cyclohexen-1-one was required about 30-100 times dosage of Yoshixol on the biological samples, and about 10-50 times dosage of Yoshixol on lower molecular substance and macromolecular substance of non-living samples.",
  "data": [
    {"smiles": "CC1(C)C=CC(=O)CC1", "note": "[4,4-dimethyl-2-cyclohexen-1-one]", "values": [
      {"measurement": "control, inhibit and/or block function generated by multi-dimensional structure", "setting": "all parameters demonstrated by Yoshixol", "result": "similarly to Yoshixol"},
      {"measurement": "concentration required for an effect identical to Yoshixol", "setting": "on the biological samples", "result": "30-100 times dosage of Yoshixol"}
    ]}
  ]
}
